Patent US20130122024A1, “NEW BINDER-DRUG CONJUGATES (ADCS) AND USE THEREOF” (Bayer Intellectual Property GmbH, priority 2011, published 2013)
Entries after “also recorded” stand apart in the source; their conditions may differ. Where a name gives a salt, the structure may show the parent alone. Square brackets hold non-standard residues; d marks the D form. Peptide text beside a SMILES is read from it. * marks the point of attachment. X1 = CC(C)[C@@H](C(=O)*)N(C)CCCCCC(=O)NCCCC[C@H](N)C(=O)O; Dolaproine = CO[C@@H]([C@@H]1CCCN1)[C@@H](C)C(=O)O; Dil = CC[C@H](C)[C@H](NC)[C@@H](CC(=O)O)OC; X5 = C[C@@H](N*)[C@@H](O)c1ccccc1; Oxazinan2yl(1,2) = C1CCN(*)OC1; NMeV = CN[C@H](C(=O)O)C(C)C

Tests used:
tubulin = assay: Fluorescence-based microtubule (tubulin) polymerization assay; type: biochemical; settings: for reduction in the polymerization rate: 1 μM
Protocol: Tubulin polymerization was investigated using the “Fluorescence-based Microtubule Polymerisation Assay Kit” from Cytoskeleton (Denver, Colo., USA; order number: BK011). With this assay, GTP is added to unpolymerized tubulin, allowing polymerization to take place spontaneously. The assay is based on the binding of the fluorophore 4′,6-di-amidino-2-phenylindole (DAPI) to tubulin. Free and bound DAPI can be differentiated on the basis of different emission spectra.
[…] In addition to the buffer control, paclitaxel, with a polymerization-increasing effect, and vinblastin, with a polymerization inhibiting effect, were run additionally as assay controls. Measurement was carried out using 96-well plates with a half base area. The kinetics of the tubulin polymerization were monitored in a Fluorimeter at 37° C. for 1 hour. The excitation wavelength was 355 nm, and emission was monitored at 460 nm. For the region of linear increase within the first 10 minutes, a calculation was made of the change in fluorescence per minute (ΔF/min), which represents the polymerization rate of the microtubuli. The potency of the test substances was quantified on the basis of their respective reduction of the polymerization rate.
The reduction in the tubulin polymerization rate occurs in dependence on the concentration of the test substance added.

[1] = Pharmacokinetics in the HT29 tumour model, non-transfected tumours; type: in vivo; settings: after i.v. 16 mg/kg of Example 5; animals with nontransfected tumours
Protocol: Following intravenous administration of 16 mg/kg of Example 5, the plasma concentrations and tumour concentrations of Example 5 and also of potential metabolites such as, for example, of Example 64 were measured. […] In contrast, the AUC in the tumour in the nontransfected animals was about 8 times lower than in the transfected animals.
The measurement of the compound from Example 64 in plasma and tumour took place following precipitation of the proteins with methanol, by means of high-pressure liquid chromatography (HPLC) coupled to a tandem mass spectrometer (MS).
For the processing of 100 μL of plasma, it was admixed with 400 μL of methanol and 10 μL of internal standard (ISTD, 50 ng/mL in methanol) and shaken for 10 seconds. After centrifuging for 5 minutes at 16 000 g, 250 μL of supernatant were transferred to an autosampler vial, which was made up with 250 μL of ammonium acetate buffer (AAC, 10 mM, pH 6.8) and shaken again.
For the processing of a tumour, it was admixed with 4 times the amount of methanol. […] After again being shaken, the tumour sample was ready for measurement.
The measurement of both matrix samples took place, lastly, on the HPLC-coupled, atmospheric pressure ionization/tandem mass spectrometer by means of a Turbo Ion Spray Interface (TISP) on an API4000 instrument from SCIEX. The m/z transitions measured were as follows: […]

Caco-2 cells = assay: Caco-2 flux assay for cell permeability; type: in vitro ADME; settings: 2 hours, B to A
Protocol: (§1) The cell permeability of a substance can be investigated by means of in vitro testing in a flux assay using Caco-2 cells [M. D. Troutman and D. R. Thakker, Pharm. Res. 20 (8), 1210-1224 (2003)]. For this purpose, the cells were cultured for 15-16 days on 24-well filter plates. For the determination of permeation, the respective working example was applied in a HEPES buffer to the cells either apically (A) or basally (B) and incubated for 2 hours. After 0 hours and after 2 hours, samples were taken from the cis and trans compartments. The samples were separated by HPLC (Agilent 1200, Böblingen, Germany) using reverse phase columns. The HPLC system was coupled via a Turbo Ion Spray Interface to a Triple Quadropol mass spectrometer API 4000 (Applied Biosystems Applera, Darmstadt, Germany). The permeability was evaluated on the basis of a Papp value, which was calculated using the formula published by Schwab et al. [D. Schwab et al., J. Med. Chem. 46, 1716-1725 (2003)].

[2] = Caco-2 flux assay for cell permeability; type: in vitro ADME; settings: human, Caco-2 cells, B to A
Protocol: as §1

Mesothelin = Mesothelin (Homo sapiens, UniProt Q13421-3 37-598, GPI anchor); assay: cell-based or functional assay
[3] = concentration of toxophore 1 μM
[4] = concentration of toxophore 10 μM

Molecule	Tubulin polymerization in the presence of toxophore in [%]. Tubulin polymerization rate at 1 μM MMAF set at 100% (tubulin; [3]) [%]	Papp (B-A) (Caco-2 cells) [nm/s]	Tubulin polymerization in the presence of toxophore in [%]. Tubulin polymerization rate at 1 μM MMAF set at 100% (tubulin; [4]) [%]	also measured
CC[C@H](C)[C@@H]([C@@H](CC(=O)N1CCC[C@H]1[C@H](OC)[C@@H](C)C(=O)N[C@@]1(C(=O)N2CCCCO2)C[C@@H]1c1ccccc1)OC)N(C)C(=O)[C@@H](NC(=O)[C@H](C(C)C)N(C)CCCC(=O)NNC(=O)CCCCCN1C(=O)CC(SC[C@H](N)C(=O)O)C1=O)C(C)C (stereo partly drawn) [Example 64, N-(4-{2-[6-(3-{[(2R)-2-Amino-2-carboxyethyl]sulphanyl}-2,5-dioxopyrrolidin-1-yl)hexanoyl]hydrazino}-4-oxobutyl)-N-methyl-L-valyl-N-[(3R,4S,5S)-3-methoxy-1-{(2S)-2-[(1R,2R)-1-methoxy-2-methyl-3-{[(1S,2R)-1-(1,2-oxazinan-2-ylcarbonyl)-2-phenylcyclopropyl]amino}-3-oxopropyl]pyrrolidin-1-yl}-5-methyl-1-oxoheptan-4-yl]-N-methyl-L-valinamide]	120	2.5		reduction in the polymerization rate (tubulin): 41%; exposure in plasma [1]: identical to the exposure in plasma in animals with transfected tumours
CC[C@H](C)[C@@H]([C@@H](CC(=O)N1CCC[C@H]1[C@H](OC)[C@@H](C)C(=O)N[C@@H](Cc1c[nH]c2ccccc12)C(=O)NCc1ccccc1)OC)N(C)C(=O)[C@@H](NC(=O)[C@H](C(C)C)N(C)CCCC(=O)NNC(=O)CCCCCN1C(=O)CC(SC[C@H](N)C(=O)O)C1=O)C(C)C (stereo partly drawn) [Example 68, N-(4-{2-[6-(3-{[(2R)-2-Amino-2-carboxyethyl]sulphanyl}-2,5-dioxopyrrolidin-1-yl)hexanoyl]hydrazino}-4-oxobutyl)-N-methyl-L-valyl-N-[(3R,4S,5S)-1-{(2S)-2-[(1R,2R)-3-{[(2S)-1-(benzylamino)-3-(1H-indol-3-yl)-1-oxopropan-2-yl]amino}-1-methoxy-2-methyl-3-oxopropyl]pyrrolidin-1-yl}-3-methoxy-5-methyl-1-oxoheptan-4-yl]-N-methyl-L-valinamide]		7	45	
CC[C@H](C)[C@@H]([C@@H](CC(=O)N1CCC[C@H]1[C@H](OC)[C@@H](C)C(=O)N[C@@H](Cc1c[nH]c2ccccc12)C(=O)N1CCCCO1)OC)N(C)C(=O)[C@@H](NC(=O)[C@H](C(C)C)N(C)CCCCCC(=O)NCCCC[C@H](N)C(=O)O)C(C)C [Example 105, N-(6-{[(5S)-5-Amino-5-carboxypentyl]amino}-6-oxohexyl)-N-methyl-L-valyl-N-[(3R,4S,5S)-1-{(2S)-2-[(1R,2R)-3-{[(2S)-3-(1H-indol-3-yl)-1-(1,2-oxazinan-2-yl)-1-oxopropan-2-yl]amino}-1-methoxy-2-methyl-3-oxopropyl]pyrrolidin-1-yl}-3-methoxy-5-methyl-1-oxoheptan-4-yl]-N-methyl-L-valinamide trifluoroacetate] (X1-V[Dil][Dolaproine]W-{Oxazinan2yl(1,2)})	45	2	1	
CC[C@H](C)[C@@H]([C@@H](CC(=O)N1CCC[C@H]1[C@H](OC)[C@@H](C)C(=O)N[C@@H](Cc1c[nH]c2ccccc12)C(=O)O)OC)N(C)C(=O)[C@@H](NC(=O)[C@H](C(C)C)N(C)CCCCCC(=O)NCCCC[C@H](N)C(=O)O)C(C)C [Example 106, N-(6-{[(5S)-5-Amino-5-carboxypentyl]amino}-6-oxohexyl)-N-methyl-L-valyl-N-[(3R,4S,5S)-1-{(2S)-2-[(1R,2R)-3-{[(1S)-1-carboxy-2-(1H-indol-3-yl)ethyl]amino}-1-methoxy-2-methyl-3-oxopropyl]pyrrolidin-1-yl}-3-methoxy-5-methyl-1-oxoheptan-4-yl]-N-methyl-L-valinamide] (X1-V[Dil][Dolaproine]W-OH)	80	1	14	
CC[C@H](C)[C@@H]([C@@H](CC(=O)N1CCC[C@H]1[C@H](OC)[C@@H](C)C(=O)N[C@@H](Cc1ccc(O)cc1)C(=O)N1CCCCO1)OC)N(C)C(=O)[C@@H](NC(=O)[C@H](C(C)C)N(C)CCCCCC(=O)NCCCC[C@H](N)C(=O)O)C(C)C [Example 117, N-(6-{[(5S)-5-Amino-5-carboxypentyl]amino}-6-oxohexyl)-N-methyl-L-valyl-N-[(3R,4S,5S)-1-{(2S)-2-[(1R,2R)-3-{[(2S)-3-(4-hydroxyphenyl)-1-(1,2-oxazinan-2-yl)-1-oxopropan-2-yl]amino}-1-methoxy-2-methyl-3-oxopropyl]pyrrolidin-1-yl}-3-methoxy-5-methyl-1-oxoheptan-4-yl]-N-methyl-L-valinamide trifluoroacetate] (X1-V[Dil][Dolaproine]Y-{Oxazinan2yl(1,2)})	88	1.5	21	
CC[C@H](C)[C@@H]([C@@H](CC(=O)N1CCC[C@H]1[C@H](OC)[C@@H](C)C(=O)N[C@H](C)[C@@H](O)c1ccccc1)OC)N(C)C(=O)[C@@H](NC(=O)[C@@H](NC)C(C)C)C(C)C [MMAE, monomethylauristatin E, reference compound] (H-[NMeV]V[Dil][Dolaproine]-X5)				Papp B→A at 2 h [2]: 7.3 ×10⁻⁶ cm/s
CC[C@H](C)[C@@H]([C@@H](CC(=O)N1CCC[C@H]1[C@H](OC)[C@@H](C)C(=O)N[C@@H](Cc1ccccc1)C(=O)O)OC)N(C)C(=O)[C@@H](NC(=O)[C@@H](NC)C(C)C)C(C)C [MMAF, Monomethylauristatin F, reference compound] (H-[NMeV]V[Dil][Dolaproine]F-OH)	100	73	34	reduction in the polymerization rate (tubulin): 40-45%; effect on tubulin polymerization (tubulin; 100 μM): complete cessation of polymerization; also recorded: inhibited completely; Tubulin polymerization in the presence of toxophore in [%]. Tubulin polymerization rate at 1 μM MMAF set at 100% (tubulin; concentration of toxophore 100 μM): 0%
Example 71 immunoconjugate (MF-Ta ADC) (antibody, human IgG1, lambda, V domains shown, auristatin linker-toxophore on cysteine sulphur) VH: QVELVQSGAEVKKPGESLKISCKGSGYSFTSYWIGWVRQAPGKGLEWMGIIDPGDSRTRYSPSFQGQVTISADKSISTAYLQWSSLKASDTAMYYCARGQLYGGTYMDGWGQGTLVTVSS VL: DIALTQPASVSGSPGQSITISCTGTSSDIGGYNSVSWYQQHPGKAPKLMIYGVNNRPSGVSNRFSGSKSGNTASLTISGLQAEDEADYYCSSYDIESATPVFGGGTKLTVLG				HT29 meso+ IC50 [nM] (MTT proliferation) (Mesothelin): 22 nM
